Tests used:
NIH3T3/EGFR vIII cells = experiment: 3D cell culture step (environment without adhesion scaffold), proliferation of NIH3T3/EGFR vIII cells; type: cell-based, mouse; conditions: for IC50: Mus musculus, 72 h, NIH3T3/EGFR vIII cells, Ultra Low Attachment plate, 3 days, […]-GLO
NIH3T3 cells = experiment: 2D cell culture step (environment with adhesion scaffold), proliferation of NIH3T3 cells; type: cell-based; conditions: Mus musculus, 72 h; NIH3T3 cells, TC-treated plate, 3 days, […]-GLO; read-out: IC50 2D cell culture step
Procedure: Note that, as a negative control, the NIH3T3 cells at 2×10^3 cells/100 were seeded to the same plate in a volume of 100 μL per well and cultured at 37° C. in the presence of 5% CO2 for 3 days without the addition of the test substance.
Note that, Dulbecco's Modified Eagle Medium supplemented with 5% FBS was used for the culture.
A cell proliferation inhibition rate in the 2D cell culture step was calculated according to (Expression 2) below. Cell proliferation inhibition rate(%)=(1−D/E)×100 (Expression 2)
In the (Expression 2), D denotes the number of viable NIH3T3 cells when the test substance was added, and E denotes the number of viable NIH3T3 cells when the test substance was not added.

[1] = Acute toxicity test, intraperitoneal administration; type: in vivo, ICR mice; conditions: for Organ weight Heart / Organ weight Kidney (Left) / Organ weight Kidney (Right) / Organ weight Liver / Organ weight Lung / Organ weight Spleen / Organ weight Thymus: two weeks after
Text: Two-weeks after the compounds represented by the Structural Formula (1) at the above concentrations were intraperitoneally administered, the mice were dissected and organs thereof were weighed.
Two-weeks after the compounds represented by the Structural Formula (8) at the above concentrations were intraperitoneally administered, the mice were dissected and organs thereof were weighed.

[2] = Acute toxicity test, oral administration; type: in vivo, ICR mice; conditions: for Organ weight Heart / Organ weight Kidney (Left) / Organ weight Kidney (Right) / Organ weight Liver / Organ weight Lung / Organ weight Spleen / Organ weight Thymus: two weeks after
Text: Two-weeks after the compounds represented by the Structural Formula (1) at the above concentrations were orally administered, the mice were dissected and organs thereof were weighed.
Two-weeks after the compounds represented by the Structural Formula (8) at the above concentrations were orally administered, the mice were dissected and organs thereof were weighed.

[3] = system: NIH3T3/EGFR vIII cell-transplanted tumor
[4] = 0.098 mg/kg/0.2 mL, intraperitoneally once
[5] = 0.195 mg/kg/0.2 mL, intraperitoneally once
[6] = 0.39 mg/kg/0.2 mL, intraperitoneally once
[7] = 0.78 mg/kg/0.2 mL, intraperitoneally once
[8] = 1.56 mg/kg/0.2 mL, intraperitoneally once
[9] = 3.125 mg/kg/0.2 mL, intraperitoneally once
[10] = 6.25 mg/kg/0.2 mL, intraperitoneally once
[11] = 12.5 mg/kg/0.2 mL, intraperitoneally once
[12] = 25 mg/kg/0.2 mL, intraperitoneally once
[13] = 50 mg/kg/0.4 mL, intraperitoneally once
[14] = 0.098 mg/kg/0.2 mL, orally once
[15] = 30 mg/kg intraperitoneally once a day, day 1 to day 17

## Cn1c(=O)c(-c2ccccc2N)nc2ccccc21 [Structural Formula (13), 3-(2-aminophenyl)-1-methyl-2(1H)-quinoxalinone]
NIH3T3/EGFR vIII cells
  IC50: > 10 µM
NIH3T3 cells
  IC50: > 10 µM

## Cc1ccc2nc(-c3cc(Br)ccc3N)c(=O)[nH]c2c1 [Structural Formula (2), 3-(2-amino-5-bromophenyl)-7-methylhydroquinoxalin-2-one]
NIH3T3/EGFR vIII cells
  IC50: 0.1 µM
NIH3T3 cells
  IC50: > 10 µM

## Nc1ccc(I)cc1-c1nc2ccccc2[nH]c1=O [Structural Formula (8), 3-(2-Amino-5-iodophenyl)-2(1H)-quinoxalinone]
NIH3T3/EGFR vIII cells; 3D cell culture step
  cell proliferation inhibiting activity compared with AG1478, Gefitinib and Erlotinib: more significant cell proliferation inhibiting activity
NIH3T3/EGFR vIII cells
  IC50: 0.01 µM
NIH3T3 cells
  IC50: > 10 µM
[1]; [4]
  Organ weight Heart: 118.0 mg
  Organ weight Kidney (Left): 160.0 mg
  Organ weight Kidney (Right): 172.0 mg
  Organ weight Liver: 1476.0 mg
  Organ weight Lung: 165.0 mg
  Organ weight Spleen: 176.0 mg
  Organ weight Thymus: 59.0 mg
[1]; [5]
  Organ weight Heart: 106.0 mg
  Organ weight Kidney (Left): 174.0 mg
  Organ weight Kidney (Right): 181.0 mg
  Organ weight Liver: 1442.0 mg
  Organ weight Lung: 166.0 mg
  Organ weight Spleen: 98.0 mg
  Organ weight Thymus: 66.0 mg
[1]; [6]
  Organ weight Heart: 108.0 mg
  Organ weight Kidney (Left): 146.0 mg
  Organ weight Kidney (Right): 158.0 mg
  Organ weight Liver: 1234.0 mg
  Organ weight Lung: 151.0 mg
  Organ weight Spleen: 69.0 mg
  Organ weight Thymus: 47.0 mg
[1]; [7]
  Organ weight Heart: 110.0 mg
  Organ weight Kidney (Left): 177.0 mg
  Organ weight Kidney (Right): 181.0 mg
  Organ weight Liver: 1324.0 mg
  Organ weight Lung: 163.0 mg
  Organ weight Spleen: 127.0 mg
  Organ weight Thymus: 60.0 mg
[1]; [8]
  Organ weight Heart: 125.0 mg
  Organ weight Kidney (Left): 161.0 mg
  Organ weight Kidney (Right): 179.0 mg
  Organ weight Liver: 1738.0 mg
  Organ weight Lung: 183.0 mg
  Organ weight Spleen: 158.0 mg
  Organ weight Thymus: 94.0 mg
[1]; [9]
  Organ weight Heart: 120.0 mg
  Organ weight Kidney (Left): 172.0 mg
  Organ weight Kidney (Right): 175.0 mg
  Organ weight Liver: 1710.0 mg
  Organ weight Lung: 165.0 mg
  Organ weight Spleen: 132.0 mg
  Organ weight Thymus: 60.0 mg
[1]; [10]
  Organ weight Heart: 120.0 mg
  Organ weight Kidney (Left): 158.0 mg
  Organ weight Kidney (Right): 178.0 mg
  Organ weight Liver: 1641.0 mg
  Organ weight Lung: 168.0 mg
  Organ weight Spleen: 124.0 mg
  Organ weight Thymus: 53.0 mg
[1]; [11]
  Organ weight Heart: 108.0 mg
  Organ weight Kidney (Left): 150.0 mg
  Organ weight Kidney (Right): 149.0 mg
  Organ weight Liver: 1356.0 mg
  Organ weight Lung: 165.0 mg
  Organ weight Spleen: 111.0 mg
  Organ weight Thymus: 78.0 mg
[1]; [12]
  Organ weight Heart: 108.0 mg
  Organ weight Kidney (Left): 149.0 mg
  Organ weight Kidney (Right): 155.0 mg
  Organ weight Liver: 1564.0 mg
  Organ weight Lung: 155.0 mg
  Organ weight Spleen: 138.0 mg
  Organ weight Thymus: 103.0 mg
[1]; [13]
  Organ weight Heart: 120.0 mg
  Organ weight Kidney (Left): 150.0 mg
  Organ weight Kidney (Right): 152.0 mg
  Organ weight Liver: 1551.0 mg
  Organ weight Lung: 166.0 mg
  Organ weight Spleen: 98.0 mg
  Organ weight Thymus: 66.0 mg
[1]; intraperitoneally once, any doses (0.098 to 50 mg/kg)
  abnormalities: no abnormalities were found at any doses
[1]; mouse, in vivo, ip
  autopsy findings: slightly lighter livers, and slightly lighter or heavier spleens were found at some doses
[2]; [14]
  Organ weight Heart: 124.0 mg
  Organ weight Kidney (Left): 165.0 mg
  Organ weight Kidney (Right): 181.0 mg
  Organ weight Liver: 1322.0 mg
  Organ weight Lung: 182.0 mg
  Organ weight Spleen: 125.0 mg
[2]; 6.25 mg/kg/0.2 mL, orally once
  Organ weight Heart: 119.0 mg
  Organ weight Lung: 171.0 mg
  Organ weight Thymus: 74.0 mg
[2]; 12.5 mg/kg/0.2 mL, orally once
  Organ weight Heart: 111.0 mg
  Organ weight Kidney (Left): 150.0 mg
  Organ weight Kidney (Right): 167.0 mg
  Organ weight Liver: 1375.0 mg
  Organ weight Lung: 159.0 mg
  Organ weight Spleen: 168.0 mg
  Organ weight Thymus: 90.0 mg
[2]; 25 mg/kg/0.2 mL, orally once
  Organ weight Heart: 110.0 mg
  Organ weight Kidney (Left): 140.0 mg
  Organ weight Kidney (Right): 152.0 mg
  Organ weight Liver: 1184.0 mg
  Organ weight Lung: 163.0 mg
  Organ weight Spleen: 92.0 mg
  Organ weight Thymus: 39.0 mg
[2]; 50 mg/kg/0.4 mL, orally once
  Organ weight Heart: 116.0 mg
  Organ weight Kidney (Left): 158.0 mg
  Organ weight Kidney (Right): 175.0 mg
  Organ weight Liver: 1331.0 mg
  Organ weight Lung: 176.0 mg
  Organ weight Spleen: 133.0 mg
  Organ weight Thymus: 87.0 mg
[2]; mouse, in vivo, po
  autopsy findings: slightly lighter livers and slightly heavier spleens were found at some doses
[2]; orally once, any doses (0.098 to 50 mg/kg)
  abnormalities: no abnormalities were found at any doses
[3]; 30 mg/kg intraperitoneally once a day, 17 days after transplantation, t<0.05
  tumor weight versus negative control group: significantly different
[3]; [15]
  mouse body weight (weight loss): weight loss was not observed
  toxicity: no toxicity
  tumor proliferation inhibiting activity: exhibited the tumor proliferation inhibiting activity
[3]; 30 mg/kg intraperitoneally vs Gefitinib 100 mg/kg orally
  tumor proliferation inhibiting activity compared with Gefitinib: comparable

## O=C(O)CCCC(=O)Nc1ccc(Br)cc1-c1nc2ccccc2[nH]c1=O [Structural Formula (5), 4-{N-[4-bromo-2-(3-oxo(4-hydroquinoxalin-2-yl))phenyl]carbamoyl}butanoic acid]
NIH3T3/EGFR vIII cells
  IC50: 0.4 µM
NIH3T3 cells
  IC50: > 10 µM

From patent US9969699B2, “Cancer cell growth inhibitor, anticancer agent, and method for screening same, as well as novel compound” (Microbial Chemistry Research Foundation, priority 2014, dated 2018)
